The values below come from ChEMBL document CHEMBL3045212, “Synthesis of some imidazolyl-substituted 2-benzylidene indanone derivatives as potent aromatase inhibitors for breast cancer therapy” (Med Chem Res, 2011).

Data set [1] has as its target T1, Aromatase (Homo sapiens, UniProt P11511).
T1 sequence (P11511 whole entry): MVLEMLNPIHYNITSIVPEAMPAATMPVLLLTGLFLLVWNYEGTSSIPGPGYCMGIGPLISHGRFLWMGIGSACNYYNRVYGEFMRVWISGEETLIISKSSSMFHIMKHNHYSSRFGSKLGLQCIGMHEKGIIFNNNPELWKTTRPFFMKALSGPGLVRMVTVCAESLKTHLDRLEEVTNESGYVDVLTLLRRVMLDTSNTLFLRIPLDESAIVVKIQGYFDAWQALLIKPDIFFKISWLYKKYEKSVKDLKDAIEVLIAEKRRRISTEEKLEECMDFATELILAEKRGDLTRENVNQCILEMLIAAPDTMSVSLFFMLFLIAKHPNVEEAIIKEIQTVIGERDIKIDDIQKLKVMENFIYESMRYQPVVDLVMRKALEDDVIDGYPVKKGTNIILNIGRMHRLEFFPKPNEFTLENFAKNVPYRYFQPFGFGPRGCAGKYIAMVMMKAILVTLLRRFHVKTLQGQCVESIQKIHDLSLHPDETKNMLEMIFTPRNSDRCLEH
The experiment in a line: Inhibition of Homo sapiens (human) aromatase assessed as 3H2O formation using [1beta,2beta-3H]testosterone as substrate at 36 uM by liquid scintillation counting analysis.

Data set [2] concerns the target T1, Aromatase. The experiment in a line: Inhibition of Homo sapiens (human) aromatase assessed as 3H2O formation using [1beta,2beta-3H]testosterone as substrate by liquid scintillation counting analysis.
Data set [3] concerns the target T1, Aromatase. The experiment in a line: Ratio of aminoglutethimide IC50 to compound IC50 for Homo sapiens (human) aromatase.

Molecules are shown by their SMILES. pIC50: −log10 of the molar value.

With `COc1cc(/C=C2\Cc3ccccc3C2=O)ccc1OCCCCl`, the inhibition (usually the relative decrease from the control value, in per cent) at 36 µM in data set [1] came to 8.5%.

Regarding `O=C1/C(=C/c2ccccc2OCCCCl)Cc2ccccc21`, the inhibition at 36 µM in data set [1] was 8%.

For the molecule `O=C1/C(=C/c2c[nH]c3ccccc23)Cc2ccccc21`, the inhibition at 36 µM in data set [1] stood at 6%.

For the molecule `COc1cc(/C=C2\Cc3ccccc3C2=O)ccc1OCCN(C)C`, in data set [1] (36 µM), the “inhibition (INH)” value is given as “Not Active”.

As to `O=C1/C(=C/c2ccccc2OCCCn2ccnc2)Cc2ccccc21`, the pIC50 (as a rule, the negative decadic logarithm of the IC50, by convention in mol/L) in data set [2] is 5.96. Besides, the “Ratio IC50” value in data set [3] turned out to be 26.6.

As to `O=C1/C(=C/c2cccc(OCCCCl)c2)Cc2ccccc21`, the inhibition at 36 µM in data set [1] was 13%.

For `COc1ccc(/C=C2\Cc3ccccc3C2=O)cc1OCCCCl`, the inhibition at 36 µM in data set [1] turned out to be 8%.

For `COc1cc(/C=C2\Cc3ccccc3C2=O)ccc1OCCCn1ccnc1`, the “Ratio IC50” value in data set [3] was 54.1.

Regarding `O=C1/C(=C/c2cccc(OCCCn3ccnc3)c2)Cc2ccccc21`, the pIC50 in data set [2] was 6.15. The “Ratio IC50” value in data set [3] turned out to be 42.5.

Regarding `COc1ccc(/C=C2\Cc3ccccc3C2=O)cc1OCCCn1ccnc1`, the pIC50 in data set [2] was 5.87. In data set [3], the “Ratio IC50” value is listed as 22.5.
